Test results: US8198285B2, “Pyrazine derivatives” (Astrazeneca AB, priority 2010, dated 2012)
Where a name gives a salt, the structure may show the parent alone.

Columns and labels:
[1] = system: β-catenin accumulation in the nucleus of murine C3H/10T1/2 cells; experiment: Cellular beta-catenin stabilisation assay, Test (b); type: cell-based; conditions: Mus musculus, 24 hours, read-out: EC50 versus cellular β-catenin accumulation in the nucleus of murine C3H/10T1/2 cells
Method: This assay uses an imaging based approach to measure the ability of test compounds to promote Beta-catenin stabilisation in the nucleus of C3H10T1/2 cells. Beta-catenin stabilisation is an indicator of GSK3β inhibition.
A C3H10T1/2 mouse clone 8 fibroblast cell line (American Type Culture Collection (ATCC, USA; catalogue number CRL 226) was routinely maintained at 37° C. with 5% CO2 in Basal Medium Eagle (BME, Invitrogen; Paisley, UK; catalogue number 41010) containing 10% (v/v) foetal bovine serum (FBS, Invitrogen, Paisley; UK; catalogue number 10270) and 2 mM L-glutamine (Invitrogen, Paisley, UK; catalogue number 25030024). For the assay, the cells were detached from the culture flask with ‘Accutase’ (Innovative Cell Technologies Inc., San Diego, USA; catalogue number AT104) using standard tissue culture methods and re-suspended in assay media comprising of BME containing 5% (v/v) FBS and 2 mM L-glutamine to give 55,555 cells per ml. Then, 90 μl of this solution was seeded into each well of a clear-bottom 96 well tissue culture plate (Perkin Elmer Viewplate; catalogue number 6005182) using a Multidrop Combi Dispenser (Thermo Fisher Scientific, Loughborough, UK) to give 5,000 cells per well. Plates were incubated overnight at 37° C. with 5% CO2 to allow the cells to adhere to the wells. Test compounds were prepared as 10 mM stock solutions in dimethylsulphoxide (DMSO) (Sigma-Aldrich; Poole, UK, catalogue number 49442-9) and serially diluted in DMSO. A Multidrop Combi was used to dispense 245 μl of pre-warmed assay media into a 96 well plate (Thermo Fisher Scientific, Loughborough, UK; catalogue number 50823925) before 5 μl of serially diluted compound was added to this intermediate plate. After mixing, 10 μl of each compound concentration was added to the cell plates. The total dilution factor from DMSO stock was 500 times. Control cells received either DMSO (0.2% v/v final concentration) or 10 μM positive control compound. The cells were incubated for 24 hours at 37° C. with 5% CO2.
After compound treatment the cells were fixed by the addition of 100 μl of 8% w/v paraformaldehyde (Sigma-Aldrich, Poole, UK; catalogue number P6148), directly into the assay plate wells. The cells were incubated at ambient temperature with fixative for 30 minutes before washing 3 times with 100 μl phosphate-buffered saline (PBS, Sigma-Aldrich; catalogue number D8537). […] The cells were then washed 3 times in 100 μl of PBS before the plates were sealed ready for image capture. Fluorescent images were captured and quantified using the Incell Analyser 3000 (GE Healthcare, USA). […]

human GSK3β enzyme = molecular target: T1, human GSK3β enzyme (Homo sapiens, UniProt P49841); experiment: In vitro GSK3β kinase assay (FRET, Z'-LYTE), Test (a); type: biochemical; conditions: read-out: IC50 versus human GSK3β enzyme
T1 construct: His6 (N); purchased Millipore 14-306; host or cells: baculovirus / Sf21 insect cells
Text: This biochemical assay used a Fluorescence Resonance Energy Transfer (FRET)-based, coupled-enzyme format to determine the ability of test compounds to inhibit substrate phosphorylation by recombinant GSK3β serine/threonine kinase (Kleman-Leyer, K. et al. Drug Disc. Devel. 2003, 6:81-2). The substrate used in this assay was Z′-LYTE™ ser/Thr 9 peptide and the FRET assay kit was obtained from Invitrogen (Paisley, UK, catalogue number PV3324). N-terminal His6-tagged recombinant human GSK313, with an H350 L mutation, was expressed in baculovirus in Sf21 insect cells, purified and obtained from Millipore (Billerica, Mass., USA, catalogue number 14-306 Human).
Test compounds were prepared as 10 mM stock solutions in dimethylsulphoxide (DMSO) and diluted in DMSO as required. Aliquots (2.5 μl) of compound dilutions were added to the wells of an Optiplate-F PerkinElmer 384-well plate (Massachusetts, USA, catalogue number 6007270). Control wells that produced a maximum signal corresponding to maximum enzyme activity were created by using 100% phosphorylated peptide obtained from Invitrogen (Paisley, UK, catalogue number PV3326). A 5 μl aliquot of 100% phosphorylated peptide (100 μM in 1.33× kinase buffer) was added to all maximum control wells. 2.5 μl of 4% DMSO solution (v/v) in 1.33× kinase buffer was added to maximum control wells. Control wells that produced a minimum signal corresponding to 100% inhibited enzyme were created by adding 2.5 μl of 40 μM Staurosporine in 1.33× kinase buffer containing 4% DMSO (v/v). A 5 μl mixture of GSK3β (100 ng/μl) enzyme and non-phosphorylated substrate (Z-LYTE™ ser/Thr 9 peptide, 100 μM) in a 1.33× kinase buffer solution was added to each well except maximum control wells and the assay plate centrifuged at 270 g for 1 minute. The kinase buffer used 1.33× was obtained from Invitrogen (Paisley, UK, catalogue number PV3189) and contained 67 mM HEPES (pH 7.5), 13 mM MgCl2, 1.3 mM EGTA, 0.01% BRIJ-35. Then 2.5 μl adenosine triphosphate (28 μM) in kinase buffer was added per well, centrifuged at 270 g for 1 minute and then the assay plate was shaken for 1 hour at room temperature. A proprietary development solution was prepared by adding 58 μl of development reagent A (Invitrogen, Paisley, UK, catalogue number PV3297) to 2142 μl of development reagent B (Invitrogen, Paisley, UK, catalogue number P3127). […]
The resultant signals arising from laser light excitation at 400 nm were read using a Perkin Elmer Envision spectrophotometer (Perkin Elmer, Massachusetts, USA). […] A ratiometric method, which calculates the ratio (the Emission Ratio) of donor emission to acceptor emission after excitation of the donor fluorophore at 400 nm, quantitates reaction progress, as shown in the equation below. […]

rat bone marrow = system: rat bone marrow
Method: 3-amino-6-(4-{3-[(3-methoxypropyl)amino]propyl}phenyl)-N-pyridin-3-ylpyrazine-2-carboxamide mono-besylate was also tested in an in vivo rat genotoxicity micronucleus study. The objective of this study was to investigate whether two oral doses of 3-amino-6-(4-{3-[(3-methoxypropyl)amino]propyl}phenyl)-N-pyridin-3-ylpyrazine-2-carboxamide mono-besylate increased the frequency of micronucleated immature erythrocytes (MIE) in rat bone marrow.
3-amino-6-(4-{3-[(3-methoxypropyl)amino]propyl}phenyl)-N-pyridin-3-ylpyrazine-2-carboxamide mono-besylate was administered to groups of 7 male Wistar Han rats, approximately 10 weeks old at dosing. Groups were given two doses of 0, 25, 125 and 250 mg/kg free-base equivalent (0, 59.5, 297 and 595 umol/kg) 24 hours apart and sampled for bone marrow analysis 24 hours after the second dose. Control rats were dosed with vehicle, 0.5% w/v hydroxypropyl methylcellulose and 0.1% w/v polysorbate 80 in phosphate buffered saline.
Animals were sacrificed 24 hours after the second dose and bone marrow smears prepared, fixed and stained with acridine orange. For each animal, 2000 immature erythrocytes (IE) were scored for the incidence of micronucleated cells (MIE) and the ratio of IE to mature erythrocytes (E) was determined in 1000 cells. In order to act as a quality control procedure, 6 slides from the bone-marrow of rats treated with cyclophosphamide at 20 mg/kg (72 umol/kg) in a previous study were included with the slides from the treated animals prior to staining and coding.

T1 sequence (P49841 whole entry): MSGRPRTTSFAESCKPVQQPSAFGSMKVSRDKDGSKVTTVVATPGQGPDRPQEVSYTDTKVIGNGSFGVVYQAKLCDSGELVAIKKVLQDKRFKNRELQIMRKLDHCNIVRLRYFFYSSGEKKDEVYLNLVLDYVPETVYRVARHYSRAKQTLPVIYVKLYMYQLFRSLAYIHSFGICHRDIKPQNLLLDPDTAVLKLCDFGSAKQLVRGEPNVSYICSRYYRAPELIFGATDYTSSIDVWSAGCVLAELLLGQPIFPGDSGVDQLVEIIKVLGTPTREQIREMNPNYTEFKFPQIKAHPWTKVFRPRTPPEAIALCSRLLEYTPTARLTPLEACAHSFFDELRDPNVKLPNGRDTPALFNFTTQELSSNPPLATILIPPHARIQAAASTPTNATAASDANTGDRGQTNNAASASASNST

Structure (SMILES) | EC50 [1] [nM] | IC50 (human GSK3β enzyme) [nM] | Maximum tolerated dose (highest dose) (rat bone marrow; two oral doses 24 hours apart, male Wistar Han rats) | Incidence of micronucleated immature erythrocytes (MIE) above the vehicle control (rat bone marrow; two oral doses up to 250 mg/kg free-base equivalent 24 hours apart, bone marrow 24 hours after second dose) | Incidence of MIE compared with the vehicle control values (rat bone marrow; quality control slides, rats given 20 mg/kg in a previous study)
COCCNCCCc1ccc(-c2cnc(N)c(C(=O)Nc3cccnc3)n2)cc1 [Example 5, 3-Amino-6-(4-{3-[(2-methoxyethyl)amino]propyl}phenyl)-N-pyridin-3-ylpyrazine-2-carboxamide tri-hydrochloride] | ~902 | ~21 |  |  | 
COCCCNCCCc1ccc(-c2cnc(N)c(C(=O)Nc3cccnc3)n2)cc1.O=S(=O)(O)c1ccccc1 [3-amino-6-(4-{3-[(3-methoxypropyl)amino]propyl}phenyl)-N-pyridin-3-ylpyrazine-2-carboxamide mono-besylate] |  |  | 250 mg/kg free-base equivalent | no biologically or statistically significant increases | 
O=P1(N(CCCl)CCCl)NCCCO1 (stereo not drawn) [cyclophosphamide, reference compound] |  |  |  |  | significantly increased

More lines, main results first:

EC50 [1] [nM] | IC50 (human GSK3β enzyme) [nM] | Structure (SMILES) | Maximum tolerated dose (highest dose) (rat bone marrow; two oral doses 24 hours apart, male Wistar Han rats) | Incidence of micronucleated immature erythrocytes (MIE) above the vehicle control (rat bone marrow; two oral doses up to 250 mg/kg free-base equivalent 24 hours apart, bone marrow 24 hours after second dose) | Incidence of MIE compared with the vehicle control values (rat bone marrow; quality control slides, rats given 20 mg/kg in a previous study)
~3890 | ~80 | COCCNCCc1ccc(-c2cnc(N)c(C(=O)Nc3cccnc3)n2)cc1 [Example 7, 3-Amino-6-(4-{2-[(2-methoxyethyl)amino]ethyl}phenyl)-N-pyridin-3-ylpyrazine-2-carboxamide tri-hydrochloride] |  |  | 
~902 | ~48 | COCCCNCCc1ccc(-c2cnc(N)c(C(=O)Nc3cccnc3)n2)cc1 [Example 6, 3-Amino-6-(4-{2-[(3-methoxypropyl)amino]ethyl}phenyl)-N-pyridin-3-ylpyrazine-2-carboxamide] |  |  | 
